The record followed here is article doi:10.1101/2025.05.06.651509v2 (biorxiv, 2026).

One assay has as its target T1, TSC22D4 (Homo sapiens, UniProt Q9Y3Q8).
T1 sequence (Q9Y3Q8 1-395): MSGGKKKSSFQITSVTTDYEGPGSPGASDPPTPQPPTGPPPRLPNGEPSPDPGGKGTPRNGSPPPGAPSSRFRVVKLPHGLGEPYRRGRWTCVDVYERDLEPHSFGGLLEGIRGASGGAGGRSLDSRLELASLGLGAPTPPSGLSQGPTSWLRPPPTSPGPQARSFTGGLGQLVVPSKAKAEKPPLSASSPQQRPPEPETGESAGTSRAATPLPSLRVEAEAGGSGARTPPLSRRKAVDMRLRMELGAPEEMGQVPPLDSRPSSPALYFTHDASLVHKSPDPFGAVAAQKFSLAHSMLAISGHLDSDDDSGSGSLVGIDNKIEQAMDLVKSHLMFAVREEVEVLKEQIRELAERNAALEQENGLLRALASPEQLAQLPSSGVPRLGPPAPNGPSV
The experiment in a line: microscale thermophoresis. The class given is binding. Conditions: room temperature.

Another assay deals with IGF2BP2 (Homo sapiens, UniProt Q9Y6M1). The assay is described as follows: microscale thermophoresis. The class given is binding. The conditions noted are these: room temperature; legend of Figure 4A prints 12 μM. For orientation: Microscale thermophoresis detects binding through changes in fluorescence in a small temperature gradient.
Chain of IGF2BP2 (Q9Y6M1 whole entry): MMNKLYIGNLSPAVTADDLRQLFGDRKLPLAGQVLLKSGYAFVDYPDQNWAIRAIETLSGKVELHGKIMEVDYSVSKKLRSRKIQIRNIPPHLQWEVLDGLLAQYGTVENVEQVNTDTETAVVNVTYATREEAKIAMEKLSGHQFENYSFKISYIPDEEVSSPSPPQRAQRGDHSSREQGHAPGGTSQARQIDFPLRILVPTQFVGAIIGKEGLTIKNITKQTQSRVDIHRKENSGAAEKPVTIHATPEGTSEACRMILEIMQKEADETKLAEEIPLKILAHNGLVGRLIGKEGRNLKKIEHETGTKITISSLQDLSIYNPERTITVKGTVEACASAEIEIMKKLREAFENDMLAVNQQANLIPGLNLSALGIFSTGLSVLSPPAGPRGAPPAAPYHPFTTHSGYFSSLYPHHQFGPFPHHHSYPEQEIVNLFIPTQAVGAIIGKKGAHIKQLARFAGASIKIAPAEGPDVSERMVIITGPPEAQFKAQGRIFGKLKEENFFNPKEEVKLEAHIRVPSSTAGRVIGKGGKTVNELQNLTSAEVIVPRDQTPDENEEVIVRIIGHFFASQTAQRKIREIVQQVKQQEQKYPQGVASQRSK

By Kd is commonly meant a measure of binding affinity in units of concentration. Read a high Kd as weaker binding. On to `OC[C@H]1OC(O)[C@H](O)[C@@H](O)[C@@H]1O` (some centres unmarked) [glucose], for which the figures for the Kd at TSC22D4 and at IGF2BP2 were about 464 µM and 8.2 µM, respectively.
